This note sets out measurements from ChEMBL document CHEMBL3120140, “Balgacyclamides, antiplasmodial heterocyclic peptides from Microcystis aeruguinosa EAWAG 251” (J Nat Prod, 2014).

A value given as a limit tells only on which side of the number the result lay.

One experiment relates to Leishmania donovani. Description: Antileishmanial activity against Leishmania donovani MHOM-ET-67/L82. It counts as functional, organism-based.
The test system of another experiment is Plasmodium falciparum. Description: Antiplasmodial activity against chloroquine-resistant Plasmodium falciparum K1 infected in human RBC after 48 hrs by [3H]-hypoxanthine incorporation assay. It counts as functional, organism-based.
A further experiment deals with Trypanosoma cruzi. Description: Antitrypanosomal activity against Trypanosoma cruzi Tulahuen C4. The format is functional, organism-based.
The subject of experiment [1] is Trypanosoma brucei rhodesiense. Description: Antitrypanosomal activity against Trypanosoma brucei rhodesiense STIB 900 after 72 hrs by Alamar blue assay. It counts as functional, organism-based. The note with it: STIB 900, 72 h. A general note: Alamar Blue is a resazurin reagent that responds to reducing activity.
The test system of the next experiment is L6. Description: Cytotoxicity against rat L6 cells after 72 hrs by Alamar blue assay. The format is cell-based. Particulars: L6, 72 h.

Regarding `CC[C@H](C)[C@H]1NC(=O)[C@H]2N=C(O[C@@H]2C)[C@H](C(C)C)NC(=O)[C@H]([C@@H](C)O)NC(=O)[C@@H](C)NC(=O)c2csc1n2`, the IC50 – broadly, the concentration that inhibits the measured activity by half – with Leishmania donovani was 28 µM; in the experiment with Plasmodium falciparum, 8.2 µM; with Trypanosoma cruzi it was above 150 µM; in experiment [1] it was 51 µM; with L6 it was above 150 µM.

For the compound `CC[C@H](C)[C@H]1NC(=O)[C@H]2N=C(O[C@@H]2C)[C@H](C(C)C)NC(=O)[C@H]2N=C(O[C@@H]2C)[C@@H](C)NC(=O)c2csc1n2`, the IC50 is above 150 µM in the experiment with Leishmania donovani; 9 µM with Plasmodium falciparum; above 150 µM in the experiment on Trypanosoma cruzi; 59 µM in experiment [1]; above 150 µM in the experiment on L6.
